Measured values: patent US20080175801A1, “Stable peroxide containing personal care compositions” (The Procter & Gamble Company, priority 2007, published 2008)
Where two headings read alike, the source gives them in different places.

Assay: Accelerated stability of flavor components in peroxide mouthrinse, measured by gas chromatography
Assay type: physicochemical
Conditions: for % Reduction at day 17, Formula IA / % Reduction at day 31, Formula IA: Formula IA with Glass H polyphosphate radical scavenger; for % Reduction at day 17, Formula IA / % Reduction at day 31, Formula IA / % Reduction at day 17, Formula IB / % Reduction at day 31, Formula IB / % Reduction at day 17, Treated / % Reduction at day 31, Treated / % Reduction at day 17, Untreated / % Reduction at day 31, Untreated: component at 0.005%; for % Reduction at day 17, Formula IB / % Reduction at day 31, Formula IB: no radical scavenger, not treated to remove metals; for % Reduction at day 17, Treated / % Reduction at day 31, Treated: formulation IB treated with polymer supported chelant; for % Reduction at day 17, Treated / % Reduction at day 31, Treated / % Reduction at day 17, Untreated / % Reduction at day 31, Untreated: vs day 0; for % Reduction at day 17, Untreated / % Reduction at day 31, Untreated: formulation IB untreated
Experimental: The stability of the present compositions was assessed by measuring any changes in levels of peroxide, active component (cetylpyridinium chloride) and flavor components under storage conditions at 40° C. and 75% Relative Humidity.
A flavor mix consisting of Ethylbutyrate, Limonene, Decanal, Methylsalicylate, Carvone and Anethole (each flavor component at 0.005%) was added to the compositions. The resulting mouthrinse formulations were packaged in 500 ml PET bottles and placed on accelerated stability test chamber at 40° C. and 75% Relative Humidity conditions. The amount of peroxide in the samples was measured using the method described above and no significant changes were detected. However, radical activity was greater in the untreated sample vs. the treated sample as evidenced in greater degradation of flavor components in the untreated sample. The amount of each flavor component at time 0, 17 and 31 days was evaluated by gas chromatography (GC). Results are summarized in Table 2 below showing % reduction of each component and total flavor at days 17 and 31 from day 0. […] The treatment also […].
Formulation IA with Glass H polyphosphate as radical scavenger was compared with a sample of formulation IB (no radical scavenger) that was not treated to remove metals. […] The resulting mouthrinse formulations were packaged in 500 ml PET bottles and placed on accelerated stability test chamber at 40° C. and 75% Relative Humidity. The amount of each flavor component at time 0, 17 and 31 days were measured by gas chromatography (GC).

Stability of flavor component in the presence of peroxide | Effect of polyphosphate radical scavenger on stability of flavor component | % Reduction at day 17, Formula IA (40° C., 75% RH) [%] | % Reduction at day 31, Formula IA (40° C., 75% RH) [%] | % Reduction at day 17, Formula IB (40° C., 75% RH) [%] | % Reduction at day 31, Formula IB (40° C., 75% RH) [%] | % Reduction at day 17, Treated (40° C., 75% RH) [%] | % Reduction at day 31, Treated (40° C., 75% RH) [%] | % Reduction at day 17, Untreated (40° C., 75% RH) [%] | % Reduction at day 31, Untreated (40° C., 75% RH) [%] | Structure (SMILES) | Effect of polyphosphate radical scavenger on stability of flavor component (in words, formulation IA vs untreated IB, 40° C., 75% RH) | Stability of flavor component in the presence of peroxide (in words, formulation IB, 40° C., 75% RH)
relatively stable | – | – | – | – | – | – | – | – | – | COC(=O)c1ccccc1O [Methylsalicylate] | – | –
significant decomposition | increased stability | 20 | 40 | 80 | 80 | 25 | 75 | 80 | 80 | CCCCCCCCCC=O [Decanal] | – | –
significant decomposition | increased stability | 60 | 80 | 100 | 100 | 60 | 80 | 100 | 100 | CC=Cc1ccc(OC)cc1 [Anethole] | – | –
– | increased stability | 0 | 0 | 20 | 20 | 25 | 25 | 20 | 20 | CCCC(=O)OCC [Ethylbutyrate] | – | –
– | – | 50 | 50 | 20 | 20 | 20 | 20 | 20 | 20 | C=C(C)C1CC=C(C)C(=O)C1 (stereo not drawn) [Carvone] | – | –

Structure (SMILES) | Stability of flavor component in the presence of peroxide | Effect of polyphosphate radical scavenger on stability of flavor component | % Reduction at day 17, Formula IA (40° C., 75% RH) [%] | % Reduction at day 31, Formula IA (40° C., 75% RH) [%] | % Reduction at day 17, Formula IB (40° C., 75% RH) [%] | % Reduction at day 31, Formula IB (40° C., 75% RH) [%] | % Reduction at day 17, Treated (40° C., 75% RH) [%] | % Reduction at day 31, Treated (40° C., 75% RH) [%] | % Reduction at day 17, Untreated (40° C., 75% RH) [%] | % Reduction at day 31, Untreated (40° C., 75% RH) [%] | Effect of polyphosphate radical scavenger on stability of flavor component (in words, formulation IA vs untreated IB, 40° C., 75% RH) | Stability of flavor component in the presence of peroxide (in words, formulation IB, 40° C., 75% RH)
C=C(C)[C@H]1CC=C(C)CC1 [Limonene] | – | – | 25 | 25 | 100 | 100 | 75 | 75 | 100 | 100 | increased stability | significant decomposition
